Source: the supplement of paper PMC10883282

Experiments:
Test in all cases: relative viability vs DMSO control (72 h) (fraction); higher = more viable cells
[1] = test system: SYO-1
How it was run: (§1)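 Sarcoma cell lines in 384-well plates, seeded to reach 80–90% confluence, were given compound after 24 h and kept 72 h at 37 °C, 5% CO2, with 0.1% DMSO vehicle and a 5 µM positive control. Relative viability came from ATPLite as percent growth, averaged over up to triplicate wells. On the rescaled values, 1 equals full and 0 equals none.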

[2] = test system: HT1080
How it was run: as §1

[3] = test system: KHOS-NP
How it was run: as §1

[4] = test system: VA-ES-BJ
How it was run: as §1

[5] = test system: SK-LMS-1
How it was run: as §1

[6] = test system: A204
How it was run: as §1

[7] = test system: HS729
How it was run: as §1

[8] = test system: SW684
How it was run: as §1

[9] = test system: SW872
How it was run: as §1

[10] = test system: SW1353
How it was run: as §1

[11] = test system: MES-SA
How it was run: as §1

[12] = test system: G401
How it was run: as §1

C[C@@H]1COC(Nc2ccc3ncnc(Nc4ccc(OCc5nccs5)c(Cl)c4)c3c2)=N1 [Varlitinib]
Conditions	relative viability
[1], 0.00017 µM	1.04
[1], 0.00051 µM	1.04
[1], 0.00152 µM	1.03
[1], 0.00457 µM	1.03
[1], 0.01372 µM	1.02
[1], 0.04115 µM	1.03
[1], 0.1235 µM	1.02
[1], 0.3704 µM	1.02
[1], 1.111 µM	1.01
[1], 3.333 µM	0.941
[1], 10 µM	0.55
[2], 0.00017 µM	1.06
[2], 0.00051 µM	1.03
[2], 0.00152 µM	1.05
[2], 0.00457 µM	1.05
[2], 0.01372 µM	1.04
[2], 0.04115 µM	1.06
[2], 0.1235 µM	1
[2], 0.3704 µM	1.01
[2], 1.111 µM	1.02
[2], 3.333 µM	0.99
[2], 10 µM	0.97
[3], 0.00017 µM	1.03
[3], 0.00051 µM	1.05
[3], 0.00152 µM	1.06
[3], 0.00457 µM	1.05
[3], 0.01372 µM	1.06
[3], 0.04115 µM	1.05
[3], 0.1235 µM	1.07
[3], 0.3704 µM	1.06
[3], 1.111 µM	1.04
[3], 3.333 µM	1.04
[3], 10 µM	0.94
[4], 0.00017 µM	1.06
[4], 0.00051 µM	1.06
[4], 0.00152 µM	1.05
[4], 0.00457 µM	1.04
[4], 0.01372 µM	1.08
[4], 0.04115 µM	1.07
[4], 0.1235 µM	1.12
[4], 0.3704 µM	1.09
[4], 1.111 µM	1.05
[4], 3.333 µM	1.06
[4], 10 µM	0.96
[5], 0.00017 µM	1.01
[5], 0.00051 µM	1.033
[5], 0.00152 µM	1.06
[5], 0.00457 µM	1
[5], 0.01372 µM	1.02
[5], 0.04115 µM	1.04
[5], 0.1235 µM	1.04
[5], 0.3704 µM	1.04
[5], 1.111 µM	1.04
[5], 3.333 µM	0.976
[5], 10 µM	0.872
[6], 0.00017 µM	1.06
[6], 0.00051 µM	1.06
[6], 0.00152 µM	1.07
[6], 0.00457 µM	1.06
[6], 0.01372 µM	1.08
[6], 0.04115 µM	1.11
[6], 0.1235 µM	1.06
[6], 0.3704 µM	1.01
[6], 1.111 µM	0.905
[6], 3.333 µM	0.763
[6], 10 µM	0.258
[7], 0.00017 µM	1.08
[7], 0.00051 µM	1.05
[7], 0.00152 µM	1.08
[7], 0.00457 µM	1.06
[7], 0.01372 µM	1.03
[7], 0.04115 µM	1.05
[7], 0.1235 µM	0.993
[7], 0.3704 µM	0.994
[7], 1.111 µM	0.9668
[7], 3.333 µM	0.931
[7], 10 µM	0.76
[8], 0.00017 µM	1.01
[8], 0.00051 µM	1.09
[8], 0.00152 µM	1.07
[8], 0.00457 µM	1.08
[8], 0.01372 µM	1.08
[8], 0.04115 µM	1.08
[8], 0.1235 µM	1.063
[8], 0.3704 µM	1.08
[8], 1.111 µM	1.06
[8], 3.333 µM	1.03
[8], 10 µM	1.03
[9], 0.00017 µM	1.09
[9], 0.00051 µM	1.07
[9], 0.00152 µM	1.1
[9], 0.00457 µM	1.08
[9], 0.01372 µM	1.065
[9], 0.04115 µM	1.08
[9], 0.1235 µM	1.05
[9], 0.3704 µM	1.04
[9], 1.111 µM	0.993
[9], 3.333 µM	0.939
[9], 10 µM	0.743
[10], 0.00017 µM	1.03
[10], 0.00051 µM	0.981
[10], 0.00152 µM	0.968
[10], 0.00457 µM	1.04
[10], 0.01372 µM	0.978
[10], 0.04115 µM	1.01
[10], 0.1235 µM	0.947
[10], 0.3704 µM	0.886
[10], 1.111 µM	0.824
[10], 3.333 µM	0.812
[10], 10 µM	0.738
[11], 0.00017 µM	0.965
[11], 0.00051 µM	0.965
[11], 0.00152 µM	0.934
[11], 0.00457 µM	0.97
[11], 0.01372 µM	0.946
[11], 0.04115 µM	0.9545
[11], 0.1235 µM	0.945
[11], 0.3704 µM	0.888
[11], 1.111 µM	0.888
[11], 3.333 µM	0.807
[11], 10 µM	0.45
[12], 0.00017 µM	0.96
[12], 0.00051 µM	0.979
[12], 0.00152 µM	0.993
[12], 0.00457 µM	0.966
[12], 0.01372 µM	0.981
[12], 0.04115 µM	0.993
[12], 0.1235 µM	0.973
[12], 0.3704 µM	0.939
[12], 1.111 µM	0.8904
[12], 3.333 µM	0.8118
[12], 10 µM	0.663

CN1CCN(CCOc2cc(OC3CCOCC3)c3c(Nc4c(Cl)ccc5c4OCO5)ncnc3c2)CC1 [Saracatinib]
Conditions	relative viability
[1], 0.00017 µM	1.02
[1], 0.00051 µM	1.02
[1], 0.00152 µM	0.971
[1], 0.00457 µM	0.965
[1], 0.01372 µM	0.958
[1], 0.04115 µM	0.917
[1], 0.1235 µM	0.91
[1], 0.3704 µM	0.826
[1], 1.111 µM	0.66
[1], 3.333 µM	0.481
[1], 10 µM	0.389
[2], 0.00017 µM	1.05
[2], 0.00051 µM	1.04
[2], 0.00152 µM	1.05
[2], 0.00457 µM	1.01
[2], 0.01372 µM	1.022
[2], 0.04115 µM	1.02
[2], 0.1235 µM	1.053
[2], 0.3704 µM	1.04
[2], 1.111 µM	1.01
[2], 3.333 µM	0.952
[2], 10 µM	0.859
[3], 0.00017 µM	1.094
[3], 0.00051 µM	1.1
[3], 0.00152 µM	1.08
[3], 0.00457 µM	1.07
[3], 0.01372 µM	1.07
[3], 0.04115 µM	1.061
[3], 0.1235 µM	1.06
[3], 0.3704 µM	1.05
[3], 1.111 µM	0.994
[3], 3.333 µM	0.862
[3], 10 µM	0.693
[4], 0.00017 µM	1.05
[4], 0.00051 µM	1.07
[4], 0.00152 µM	1.07
[4], 0.00457 µM	1.11
[4], 0.01372 µM	1.11
[4], 0.04115 µM	1.14
[4], 0.1235 µM	1.14
[4], 0.3704 µM	1.12
[4], 1.111 µM	0.941
[4], 3.333 µM	0.805
[4], 10 µM	0.681
[5], 0.00017 µM	1.03
[5], 0.00051 µM	1.06
[5], 0.00152 µM	1.05
[5], 0.00457 µM	1.04
[5], 0.01372 µM	1.02
[5], 0.04115 µM	1.05
[5], 0.1235 µM	0.973
[5], 0.3704 µM	0.933
[5], 1.111 µM	0.864
[5], 3.333 µM	0.71
[5], 10 µM	0.491
[6], 0.00017 µM	1.03
[6], 0.00051 µM	1.05
[6], 0.00152 µM	1.06
[6], 0.00457 µM	1.06
[6], 0.01372 µM	1.04
[6], 0.04115 µM	1.01
[6], 0.1235 µM	0.992
[6], 0.3704 µM	0.963
[6], 1.111 µM	0.882
[6], 3.333 µM	0.679
[6], 10 µM	0.468
[7], 0.00017 µM	1
[7], 0.00051 µM	0.991
[7], 0.00152 µM	0.97
[7], 0.00457 µM	0.983
[7], 0.01372 µM	0.885
[7], 0.04115 µM	0.867
[7], 0.1235 µM	0.869
[7], 0.3704 µM	0.792
[7], 1.111 µM	0.691
[7], 3.333 µM	0.62
[7], 10 µM	0.627
[8], 0.00017 µM	1.11
[8], 0.00051 µM	1.15
[8], 0.00152 µM	1.16
[8], 0.00457 µM	1.177
[8], 0.01372 µM	1.15
[8], 0.04115 µM	1.17
[8], 0.1235 µM	1.14
[8], 0.3704 µM	1.15
[8], 1.111 µM	1.07
[8], 3.333 µM	1.05
[8], 10 µM	1.08
[9], 0.00017 µM	1.07
[9], 0.00051 µM	1.05
[9], 0.00152 µM	1.06
[9], 0.00457 µM	1.019
[9], 0.01372 µM	1.05
[9], 0.04115 µM	0.977
[9], 0.1235 µM	0.9173
[9], 0.3704 µM	0.828
[9], 1.111 µM	0.693
[9], 3.333 µM	0.655
[9], 10 µM	0.59
[10], 0.00017 µM	1.03
[10], 0.00051 µM	0.988
[10], 0.00152 µM	1.02
[10], 0.00457 µM	0.996
[10], 0.01372 µM	0.945
[10], 0.04115 µM	0.929
[10], 0.1235 µM	0.891
[10], 0.3704 µM	0.843
[10], 1.111 µM	0.7072
[10], 3.333 µM	0.6847
[10], 10 µM	0.666
[11], 0.00017 µM	0.934
[11], 0.00051 µM	0.933
[11], 0.00152 µM	0.936
[11], 0.00457 µM	0.94
[11], 0.01372 µM	0.959
[11], 0.04115 µM	0.923
[11], 0.1235 µM	0.943
[11], 0.3704 µM	0.925
[11], 1.111 µM	0.837
[11], 3.333 µM	0.692
[11], 10 µM	0.622
[12], 0.00017 µM	1.03
[12], 0.00051 µM	1.05
[12], 0.00152 µM	1.008
[12], 0.00457 µM	1.04
[12], 0.01372 µM	1.05
[12], 0.04115 µM	1.01
[12], 0.1235 µM	0.955
[12], 0.3704 µM	0.912
[12], 1.111 µM	0.86
[12], 3.333 µM	0.797
[12], 10 µM	0.668
